Source: patent publication US20230357253A1, “AGONISTS OF STIMULATOR OF INTERFERON GENES STING” (THE SCRIPPS RESEARCH INSTITUTE, priority 2020, published 2023)

Assays:
THP-1 Lucia ISG cells = test: ISRE-luciferase assay (ISG-LUC activation); format: cell-based; conditions: Homo sapiens, THP1-Lucia ISG, 24 hours, luciferase reporter
Description: ISRE-luciferase assay. THP-1 Lucia ISG cells were resuspended in low-serum growth media (2% FBS) at a density of 5×10^5 cells/ml and treated with test article or vehicle (DMSO). 50 μL of cells were seeded into each well of a 384-well white greiner plates and incubated for 24 hours. To evaluate expression of the luciferase reporter, 30 μl of Quanti-luc (Invivogen) detection reagent was added to each well and luminescence was read using an Envision plate reader (Perkin Elmer) set with an integration time of 0.1 seconds. For each cell type, luminescence signals for test article samples were normalized to vehicle-treated samples and reported as relative light units (RLU).

human STING protein = human STING protein (Homo sapiens (Human), UniProt Q86WV6); test: WT STING binding assay (HTRF, competition with labeled 2′3′cGAMP); conditions: recombinant 6×His-tagged human STING, three hours at room temperature
Description: WT STING binding assay (Cisbio, Catalog #64BDSTGPEH). […] Upon proximity of the two dyes, the excitation of the donor by the flash lamp on the PHERAstar FSX plate reader triggers a Fluorescence Resonance Energy Transfer (FRET) towards the acceptor, which in turn fluoresces at 665 nm. To assess the ability of the synthetic small molecule STING ligands to bind to human STING, a competitive assay format was applied. A 10-point titration of each of the synthetic ligands in 5 uL were transferred into a 384 well plate, followed by 20 uL of assay buffer containing the 6×His-tagged human STING protein and labeled 2′3′cGAMP ligand and incubated for three hours at room temperature. The raw values obtained from the PHERAstar were used to calculate the reported IC50 values (the signal is inversely proportional to the binding of the synthetic ligand) through curve fitting in Genedata. The percent inhibition was calculated based upon the maximal amount of binding by synthetic compound versus the maximum binding of unlabeled 2′3′ cGAMP which was used as a control in each assay.

human STING protein, sequence (Q86WV6 whole entry): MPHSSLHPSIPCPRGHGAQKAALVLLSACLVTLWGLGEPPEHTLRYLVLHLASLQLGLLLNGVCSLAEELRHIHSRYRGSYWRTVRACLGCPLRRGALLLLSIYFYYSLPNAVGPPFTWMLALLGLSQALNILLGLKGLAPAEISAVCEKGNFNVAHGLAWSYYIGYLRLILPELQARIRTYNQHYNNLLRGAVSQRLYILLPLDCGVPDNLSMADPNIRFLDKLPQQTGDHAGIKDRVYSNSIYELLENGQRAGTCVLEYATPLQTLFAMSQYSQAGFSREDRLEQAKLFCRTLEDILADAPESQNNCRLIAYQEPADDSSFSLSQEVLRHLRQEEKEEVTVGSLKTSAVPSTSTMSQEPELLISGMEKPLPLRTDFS

| SMILES | EC50 (THP-1 Lucia ISG cells) [µM] | IC50 (human STING protein) [µM] |
| --- | --- | --- |
| O=C(Nc1cc(OCCCCOc2cc(NC(=O)c3ccc(-n4ccnc4)nn3)c(C(=O)O)cc2F)c(F)cc1C(=O)O)c1ccc(-n2ccnc2)nn1 [Compound 17] | 0.5 to 5 | 0.1 to 1 |
| O=C(Nc1cc(OCCCCOc2cc(NC(=O)c3ccc(-n4ccnc4)nn3)c(C(=O)O)cc2F)c(F)cc1C(=O)O)c1ccc(O)nn1 [Compound 18] | > 5 | 0.1 to 1 |
| O=C(Nc1cc(OCCCCOc2ccc(C(=O)O)c(NC(=O)c3ccc4nnnn4n3)c2)ccc1C(=O)O)c1ccc(-n2ccnc2)nn1 [Compound 20] | > 5 | 0.1 to 1 |
| O=C(Nc1cc(OCCCCOc2cc(NC(=O)c3ccc4nnnn4n3)c(C(=O)O)cc2F)c(F)cc1C(=O)O)c1ccc(-n2ccnc2)nn1 [Compound 22] | > 5 | 0.1 to 1 |
| O=c1oc(-c2ccc(-n3ccnc3)nn2)nc2cc(OCCCCOc3cc4nc(-c5ccc(-n6ccnc6)nn5)oc(=O)c4cc3F)ccc12 [Compound 46] | 0.5 to 5 | 0.1 to 1 |
| COC(=O)c1ccc(CCCc2ccc(C(=O)O)c(NC(=O)c3ccc(-n4ccnc4)nn3)c2)cc1NC(=O)c1ccc(-n2ccnc2)nn1 [Compound 47] | 0.5 to 5 | 0.1 to 1 |
| O=C(Nc1cc(CCCc2ccc(C(=O)O)c(NC(=O)c3ccc(-n4ccnc4)nn3)c2)ccc1C(=O)O)c1ccc(-n2ccnc2)nn1 [Compound 48] | 0.05 to 0.5 | 0.01 to 0.1 |
| COc1cc(C(=O)O)c(NC(=O)c2ccc(-n3ccnc3)nn2)cc1OCCCCOc1ccc(C(=O)O)c(NC(=O)c2ccc(-n3ccnc3)nn2)c1 [Compound 49] | > 5 | 0.1 to 1 |
| O=C(Nc1cc(OCCCCOc2cc(NC(=O)c3ccc(-n4ccnc4)nn3)c(C(=O)O)cc2Cl)c(Cl)cc1C(=O)O)c1ccc(-n2ccnc2)nn1 [Compound 50] | 0.5 to 5 | 0.1 to 1 |
| O=C(Nc1cc(CCCc2cc(NC(=O)c3ccc(-n4ccnc4)nn3)c(C(=O)O)nc2Cl)c(F)cc1C(=O)O)c1ccc(-n2ccnc2)nn1 [Compound 52] | 0.05 to 0.5 | 0.01 to 0.1 |
| O=C(Nc1cc(CCCc2ccc(NC(=O)c3ccc(-n4ccnc4)nn3)c(C(=O)O)c2)ccc1C(=O)O)c1ccc(-n2ccnc2)nn1 [Compound 55] | 0.5 to 5 | 0.01 to 0.1 |
| O=C(Nc1cc(OCCCCOc2ccc(C(=O)O)c(NC(=O)c3ccc4nnnn4n3)c2)c(F)cc1C(=O)O)c1ccc(-n2ccnc2)nn1 [Compound 57] | > 5 | 0.01 to 0.1 |
| COc1cc(C(=O)O)c(NC(=O)c2ccc(-n3ccnc3)nn2)cc1OCCCCOc1cc(NC(=O)c2ccc(-n3ccnc3)nn2)c(C(=O)O)cc1F [Compound 58] | 0.5 to 5 | 0.1 to 1 |
| COC(=O)c1ccc(OCCCCOc2cc(NC(=O)c3ccc4nnnn4n3)c(C(=O)O)cc2F)cc1NC(=O)c1ccc(-n2ccnc2)nn1 [Compound 62] | > 5 | 0.1 to 1 |
| O=C(Nc1cc(OCCCCOc2cnc(C(=O)O)c(NC(=O)c3ccc(-n4ccnc4)nn3)c2)c(F)cc1C(=O)O)c1ccc2nnnn2n1 [Compound 64] | > 5 | 0.01 to 0.1 |
| O=C(Nc1cc(CCCc2cnc(C(=O)O)c(NC(=O)c3ccc(-n4ccnc4)nn3)c2)c(F)cc1C(=O)O)c1ccc(-n2ccnc2)nn1 [Compound 65] | 0.5 to 5 | 0.01 to 0.1 |
| O=C(Nc1ccc(CCCc2cc(NC(=O)c3ccc(-n4ccnc4)nn3)c(C(=O)O)cc2F)cc1C(=O)O)c1ccc(-n2ccnc2)nn1 [Compound 71] | > 5 | 0.01 to 0.1 |
| O=C(Nc1cc(OCCCCOc2cc(NC(=O)c3ccc4nnnn4n3)c(C(=O)O)cc2Cl)ccc1C(=O)O)c1ccc(-n2ccnc2)nn1 [Compound 72] | 0.5 to 5 | 0.01 to 0.1 |
| O=C(Nc1cc(OCCCCOc2cc(NC(=O)c3ccc4nnnn4n3)c(C(=O)O)cc2F)ccc1C(=O)O)c1ccc(-n2ccnc2)nn1 [Compound 74] | > 5 | 0.01 to 0.1 |
| O=C(Nc1cc(CCCc2ccc(C(=O)O)c(NC(=O)c3ccc4nnnn4n3)c2)c(F)cc1C(=O)O)c1ccc(-n2ccnc2)nn1 [Compound 75] | 0.5 to 5 | 0.1 to 1 |
| COC(=O)c1cc(F)c(CCCc2cc(NC(=O)c3ccc4nnnn4n3)c(C(=O)O)cc2F)cc1NC(=O)c1ccc(-n2ccnc2)nn1 [Compound 76] | 0.05 to 0.5 | 0.01 to 0.1 |
| O=C(Nc1cc(CCCc2cc(NC(=O)c3ccc4nnnn4n3)c(C(=O)O)cc2Cl)ccc1C(=O)O)c1ccc(-n2ccnc2)nn1 [Compound 77] | 0.05 to 0.5 | 0.01 to 0.1 |
| COC(=O)c1ccc(CCCc2cc(C(=O)O)c(NC(=O)c3ccc(-n4ccnc4)nn3)cc2F)cc1NC(=O)c1ccc(-n2ccnc2)nn1 [Compound 79] | 0.05 to 0.5 | 0.1 to 1 |

| SMILES | EC50 (THP-1 Lucia ISG cells) [µM] | IC50 (human STING protein) [µM] |
| --- | --- | --- |
| COC(=O)c1nc(Cl)c(CCCc2cnc(C(=O)O)c(NC(=O)c3ccc(-n4ccnc4)nn3)c2)cc1NC(=O)c1ccc(-n2ccnc2)nn1 [Compound 80] | 0.5 to 5 | 0.01 to 0.1 |
| O=C(Nc1cc(CCCc2cnc(C(=O)O)c(NC(=O)c3ccc(-n4ccnc4)nn3)c2)c(F)cc1C(=O)O)c1ccc2nnnn2n1 [Compound 82] | > 5 | 0.1 to 1 |
| O=C(Nc1cc(OCCCCOc2cnc(C(=O)O)c(NC(=O)c3ccc4nnnn4n3)c2)c(F)cc1C(=O)O)c1ccc(-n2ccnc2)nn1 [Compound 83] | > 5 | 0.1 to 1 |
| COc1cc(NC(=O)c2ccc3nnnn3n2)c(C(=O)O)cc1CCCc1ccc(C(=O)O)c(NC(=O)c2ccc(-n3ccnc3)nn2)c1 [Compound 84] | 0.5 to 5 | 0.1 to 1 |
| COc1cc(C(=O)O)c(NC(=O)c2ccc3nnnn3n2)cc1CCCc1cnc(C(=O)O)c(NC(=O)c2ccc(-n3ccnc3)nn2)c1 [Compound 85] | > 5 | 0.1 to 1 |
| COc1cc(C(=O)O)c(NC(=O)c2ccc3nnnn3n2)cc1CCCc1ccc(C(=O)O)c(NC(=O)c2ccc(-n3ccnc3)nn2)c1 [Compound 86] | 0.05 to 0.5 | 0.01 to 0.1 |
| O=C(Nc1cc(CCCc2cc(NC(=O)c3ccc4nnnn4n3)c(C(=O)O)nc2Cl)ccc1C(=O)O)c1ccc(-n2ccnc2)nn1 [Compound 87] | 0.05 to 0.5 | 0.01 to 0.1 |
| COC(=O)c1ccc(CCCc2cc(NC(=O)c3ccc4nnnn4n3)c(C(=O)O)cc2F)cc1NC(=O)c1ccc(-n2ccnc2)nn1 [Compound 88] | 0.5 to 5 | 0.1 to 1 |
| O=C(Nc1cc(CCCc2cc(NC(=O)c3ccc4nnnn4n3)c(C(=O)O)cc2F)ccc1C(=O)O)c1ccc(-n2ccnc2)nn1 [Compound 89] | 0.05 to 0.5 | 0.01 to 0.1 |
| COc1cc(C(=O)O)c(NC(=O)c2ccc3nnnn3n2)cc1OCCc1ccc(C(=O)O)c(NC(=O)c2ccc(-n3ccnc3)nn2)c1 [Compound 91] | > 5 | 0.1 to 1 |
| O=C(Nc1cc(CCOc2cc(NC(=O)c3ccc4nnnn4n3)c(C(=O)O)cc2F)ccc1C(=O)O)c1ccc(-n2ccnc2)nn1 [Compound 92] | 0.05 to 0.5 | 0.01 to 0.1 |
| O=C(Nc1cc(CCCc2cc(C(=O)O)c(NC(=O)c3ccc4nnnn4n3)cc2Cl)ccc1C(=O)O)c1ccc(-n2ccnc2)nn1 [Compound 93] | 0.05 to 0.5 | 0.01 to 0.1 |
| COc1cc(C(=O)O)c(NC(=O)c2ccc3nnnn3n2)cc1OCCCCOc1cc(NC(=O)c2ccc(-n3ccnc3)nn2)c(C(=O)O)cc1F [Compound 95] | 0.5 to 5 | 0.01 to 0.1 |
| COc1cc(NC(=O)c2ccc3nnnn3n2)c(C(=O)O)cc1CCCc1cc(NC(=O)c2ccc(-n3ccnc3)nn2)c(C(=O)O)cc1F [Compound 96] | 0.05 to 0.5 | 0.01 to 0.1 |
| O=C(Nc1cc(OCCc2cc(NC(=O)c3ccc4nnnn4n3)c(C(=O)O)cc2F)ccc1C(=O)O)c1ccc(-n2ccnc2)nn1 [Compound 97] | 0.5 to 5 | 0.1 to 1 |
| O=C(Nc1cc(CCCCc2cc(NC(=O)c3ccc4nnnn4n3)c(C(=O)O)cc2F)c(F)cc1C(=O)O)c1ccc(-n2ccnc2)nn1 [Compound 98] | 0.05 to 0.5 | 0.01 to 0.1 |
| COc1cc(C(=O)O)c(NC(=O)c2ccc(-n3ccnc3)nn2)cc1CCOc1cc(NC(=O)c2ccc3nnnn3n2)c(C(=O)O)cc1F [Compound 99] | 0.5 to 5 | 0.1 to 1 |
| COc1cc(C(=O)O)c(NC(=O)c2ccc3nnnn3n2)cc1CCOc1cc(NC(=O)c2ccc(-n3ccnc3)nn2)c(C(=O)O)cc1F [Compound 100] | 0.05 to 0.5 | 0.1 to 1 |
| COc1cc(NC(=O)c2ccc(-n3ccnc3)nn2)c(C(=O)O)cc1CCCc1cc(NC(=O)c2ccc3nnnn3n2)c(C(=O)O)cc1F [Compound 101] | 0.05 to 0.5 | 0.1 to 1 |
| COc1cc(C(=O)O)c(NC(=O)c2ccc3nnnn3n2)cc1OCCc1cc(NC(=O)c2ccc(-n3ccnc3)nn2)c(C(=O)O)cc1F [Compound 102] | 0.5 to 5 | 0.1 to 1 |
| COc1cc(NC(=O)c2ccc3nnnn3n2)c(C(=O)O)cc1CCOc1cc(NC(=O)c2ccc(-n3ccnc3)nn2)c(C(=O)O)cc1F [Compound 103] | 0.5 to 5 | 0.1 to 1 |
| O=C(Nc1cc(CCOc2cc(NC(=O)c3ccc4nnnn4n3)c(C(=O)O)cc2Cl)ccc1C(=O)O)c1ccc(-n2ccnc2)nn1 [Compound 104] | 0.05 to 0.5 | 0.01 to 0.1 |
